{
  "source": "ChEMBL document CHEMBL1137830",
  "about": "“Synthesis and evaluation of tacrine-E2020 hybrids as acetylcholinesterase inhibitors for the treatment of Alzheimer's disease” (Bioorg Med Chem Lett, 2004)",
  "key": {"Butyrylcholinesterase": {"biological_target": "Butyrylcholinesterase (Rattus norvegicus, UniProt Q9JKC1)", "sequence (Q9JKC1 whole entry)": "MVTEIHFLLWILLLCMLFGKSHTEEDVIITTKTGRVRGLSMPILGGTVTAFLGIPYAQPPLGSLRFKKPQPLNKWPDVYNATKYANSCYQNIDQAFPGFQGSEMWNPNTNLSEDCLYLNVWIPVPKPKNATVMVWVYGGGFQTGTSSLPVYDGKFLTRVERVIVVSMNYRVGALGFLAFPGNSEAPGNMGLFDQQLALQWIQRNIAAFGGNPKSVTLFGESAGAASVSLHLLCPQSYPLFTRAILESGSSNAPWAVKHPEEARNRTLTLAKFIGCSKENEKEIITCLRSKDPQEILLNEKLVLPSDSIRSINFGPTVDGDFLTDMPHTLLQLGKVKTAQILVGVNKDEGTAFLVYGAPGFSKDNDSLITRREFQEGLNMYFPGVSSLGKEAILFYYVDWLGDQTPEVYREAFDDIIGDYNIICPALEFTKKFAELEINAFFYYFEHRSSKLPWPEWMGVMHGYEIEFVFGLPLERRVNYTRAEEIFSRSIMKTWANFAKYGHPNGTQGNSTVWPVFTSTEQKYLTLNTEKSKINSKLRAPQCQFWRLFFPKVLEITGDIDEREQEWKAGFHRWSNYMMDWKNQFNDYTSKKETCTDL", "description": "Inhibitory concentration against rat serum Butyrylcholinesterase"}, "Acetylcholinesterase": {"biological_target": "T1, Acetylcholinesterase (Rattus norvegicus, UniProt P37136)", "T1 sequence (P37136 whole entry)": "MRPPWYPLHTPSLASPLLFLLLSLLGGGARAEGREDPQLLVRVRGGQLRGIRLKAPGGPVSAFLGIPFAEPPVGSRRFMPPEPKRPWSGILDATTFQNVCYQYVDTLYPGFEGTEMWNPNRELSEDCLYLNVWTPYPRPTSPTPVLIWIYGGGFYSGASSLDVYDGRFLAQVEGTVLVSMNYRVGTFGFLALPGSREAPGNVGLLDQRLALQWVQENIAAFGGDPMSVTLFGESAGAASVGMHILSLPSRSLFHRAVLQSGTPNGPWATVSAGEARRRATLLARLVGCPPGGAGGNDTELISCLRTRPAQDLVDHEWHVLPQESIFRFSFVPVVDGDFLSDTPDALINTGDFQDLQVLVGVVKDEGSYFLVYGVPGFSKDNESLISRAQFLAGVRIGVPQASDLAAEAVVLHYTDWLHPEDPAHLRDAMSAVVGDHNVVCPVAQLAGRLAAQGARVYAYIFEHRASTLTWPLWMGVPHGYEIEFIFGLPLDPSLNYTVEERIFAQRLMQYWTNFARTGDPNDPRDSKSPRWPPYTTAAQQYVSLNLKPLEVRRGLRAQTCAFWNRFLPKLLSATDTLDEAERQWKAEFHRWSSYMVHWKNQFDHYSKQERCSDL", "description": "Inhibitory concentration against rat cortex Acetylcholinesterase"}},
  "data": [
    {"smiles": "COc1ccc(C(=O)NCC(=O)NCCC2CCN(Cc3ccccc3)CC2)cc1OC", "values": [
      {"measurement": "IC50", "setting": "Butyrylcholinesterase", "value": 19.2, "unit": "µM"},
      {"measurement": "IC50", "setting": "Acetylcholinesterase", "value": 0.662, "unit": "µM"}
    ]},
    {"smiles": "O=C(CNC1c2ccccc2-c2[nH]c3ccccc3c21)NCCC1CCN(Cc2ccccc2)CC1", "note": "(stereo not drawn)", "values": [
      {"measurement": "IC50", "setting": "Butyrylcholinesterase", "value": 17.8, "unit": "µM"}
    ]},
    {"smiles": "O=C(CNC1CCc2ccccc21)NCCC1CCN(Cc2ccccc2)CC1", "note": "(stereo not drawn)", "values": [
      {"measurement": "IC50", "setting": "Butyrylcholinesterase", "value": 6.92, "unit": "µM"},
      {"measurement": "IC50", "setting": "Acetylcholinesterase", "value": 0.23, "unit": "µM"}
    ]},
    {"smiles": "O=C(CNc1c2c(nc3ccccc13)CCCC2)NCCC1CCN(c2ccccc2)CC1", "values": [
      {"measurement": "IC50", "setting": "Butyrylcholinesterase", "value": 0.076, "unit": "µM"},
      {"measurement": "IC50", "setting": "Acetylcholinesterase", "value": 0.006, "unit": "µM"}
    ]},
    {"smiles": "O=C(CNc1c2c(nc3ccccc13)CCCC2)NCC1CCN(c2ccccc2)CC1", "values": [
      {"measurement": "IC50", "setting": "Butyrylcholinesterase", "value": 0.0124, "unit": "µM"}
    ]}
  ]
}
